Assay results as given in patent publication US11965006B2, “Antimicrobial and anti-cancer therapy” (UNIVERSITY OF PITTSBURGH—OF THE COMMONWEALTH SYSTEM OF …, priority 2016, dated 2024).
Square brackets hold non-standard residues; d marks the D form. Peptide text beside a SMILES is read from it.

B1: SPLUNC1-wt: wildtype version of SPLUNC1, a naturally secreted antimicrobial protein (protein, UniProt Q9NP55 20-256, looked up)
BPI fold-containing family A …: QFGGLPVPLDQTLPLNVNPALPLSPTGLAGSLTNALSNGLLSGGLLGILENLPLLDILKPGGGTSGGLLGGLLGKVTSVIPGLNNIIDIKVTDPQLLELGLVQSPDGHRLYVTIPLGIKLQVNTPLVGASLLRLAVKLDITAEILAVRDKQERIHLVLGDCTHSPGSLQISLLDGLGPLPIQGLLDSLTGILNKVLPELVQGNVCPLVNEVLRGLDITLVHDIVNMLIHGLQFVIKV

Assays:
[1] = In vivo pulmonary toxicity; design: species or system mouse
Protocol: Pulmonary toxicity was tested in mouse lung.

Hep2 epithelial cells = experiment: Hep2 cytopathology in RSV plaque assay; format: cell-based; details: 32 μM
Protocol: Using a standard plaque assay, RSV replication was quantified in permissive Hep2 epithelial cells in the presence or absence of various AMPs. RSV plaque assays were used to determine the minimum dose required to induce Hep2 cytopathology and maximum anti-viral effects. Experimental controls included Hep2 cells+/−RSV and Hep-2 cells with AMP only.
Hep2 control cells without the AMP were also plated. Both plates were infected with the same dilution of A2 RSV virus. There is extensive sloughing of cells treated with the peptide (top plate) as compared to cells which were not (bottom plate), FIG. 18.

S.A. ATCC49775 = experiment: Antimicrobial activity of SPLUNC1 proteins (FIG. 2A); format: cell-based; details: S.A. ATCC49775, FIG. 2A
Description: (§1) The AMPs disclosed herein were derived from the naturally secreted antimicrobial protein SPLUNC1. […] FIG. 2C) illustrates the alpha helical structure of alpha4 (A4), the 30 residue sequence used as the template to design the disclosed AMPs listed in Table 2.

MRSA USA300 = experiment: Antimicrobial activity of SPLUNC1 proteins (FIG. 2B); format: cell-based; details: MRSA USA300, FIG. 2B
Description: as §1

Row | Molecule | recruitment of leukocytes (a measure of inflammation) ([1]; at four times the concentration of SEQ ID No. 26) | behaviour of mice after treatment ([1]; response to the hand grab) | cytopathology in Hep2 cells (Hep2 epithelial cells) | antimicrobial activity (S.A. ATCC49775) | antimicrobial activity (MRSA USA300)
1 | CC(C)[C@@H](NC(=O)[C@H](Cc1c[nH]c2ccccc12)NC(=O)[C@H](CCCNC(=N)N)NC(=O)[C@H](CCCNC(=N)N)NC(=O)[C@H](NC(=O)[C@H](NC(=O)[C@H](CCCNC(=N)N)NC(=O)[C@H](NC(=O)[C@H](NC(=O)[C@H](CCCNC(=N)N)NC(=O)[C@H](CCCNC(=N)N)NC(=O)[C@H](Cc1c[nH]c2ccccc12)NC(=O)[C@H](NC(=O)[C@H](CCCNC(=N)N)NC(=O)[C@H](CCCNC(=N)N)NC(=O)[C@H](NC(=O)[C@H](CCCNC(=N)N)NC(=O)[C@H](CCCNC(=N)N)NC(=O)[C@H](NC(=O)[C@H](Cc1c[nH]c2ccccc12)NC(=O)[C@H](CCCNC(=N)N)NC(=O)[C@@H](N)CCCNC(=N)N)C(C)C)C(C)C)C(C)C)C(C)C)C(C)C)C(C)C)C(C)C)C(=O)N[C@@H](CCCNC(=N)N)C(=O)N[C@@H](CCCNC(=N)N)C(=O)O [SEQ ID No. 34] (H-RRW[dV]RR[dV]RR[dV]WRR[dV][dV]R[dV][dV]RRW[dV]RR-OH; N-terminus and C-terminus assumed) | significantly lower than SEQ ID No. 26 | more active and responsive | caused cytopathology |  | 
2 | B1 |  |  |  | significant antimicrobial activity | significant antimicrobial activity
